inhibition, percent of control and residual activity data for three molecules are collected here from ChEMBL document CHEMBL5696442, “Discovery of type II inhibitors of TGFβ-activated kinase 1 (TAK1) and mitogen-activated protein kinase kinase kinase kinase 2 (MAP4K2)” (J Med Chem, 2015).

Structures are written as SMILES.

Experiment [1] addresses Cyclin-dependent kinase 18 (Homo sapiens) (UniProt Q07002). Kind of experiment: Inhibition of PCTAIRE3 Lys1 labeling site harbouring SKLTENLVALKEIRLEHEEGAPCTAIR in human A-375 cells at 0.05 uM by KiNativ Profiling analysis relative to control. Format: cell-based.
Experiment [2] deals with Mitogen-activated protein kinase kinase kinase 13 (Homo sapiens) (UniProt O43283). Kind of experiment: Inhibition of LZK (unknown origin) at 1 uM by Ambit Kinomescan binding assay relative to control.
Chain of Mitogen-activated protein kinase kinase kinase 13 (Homo sapiens) (O43283 whole entry): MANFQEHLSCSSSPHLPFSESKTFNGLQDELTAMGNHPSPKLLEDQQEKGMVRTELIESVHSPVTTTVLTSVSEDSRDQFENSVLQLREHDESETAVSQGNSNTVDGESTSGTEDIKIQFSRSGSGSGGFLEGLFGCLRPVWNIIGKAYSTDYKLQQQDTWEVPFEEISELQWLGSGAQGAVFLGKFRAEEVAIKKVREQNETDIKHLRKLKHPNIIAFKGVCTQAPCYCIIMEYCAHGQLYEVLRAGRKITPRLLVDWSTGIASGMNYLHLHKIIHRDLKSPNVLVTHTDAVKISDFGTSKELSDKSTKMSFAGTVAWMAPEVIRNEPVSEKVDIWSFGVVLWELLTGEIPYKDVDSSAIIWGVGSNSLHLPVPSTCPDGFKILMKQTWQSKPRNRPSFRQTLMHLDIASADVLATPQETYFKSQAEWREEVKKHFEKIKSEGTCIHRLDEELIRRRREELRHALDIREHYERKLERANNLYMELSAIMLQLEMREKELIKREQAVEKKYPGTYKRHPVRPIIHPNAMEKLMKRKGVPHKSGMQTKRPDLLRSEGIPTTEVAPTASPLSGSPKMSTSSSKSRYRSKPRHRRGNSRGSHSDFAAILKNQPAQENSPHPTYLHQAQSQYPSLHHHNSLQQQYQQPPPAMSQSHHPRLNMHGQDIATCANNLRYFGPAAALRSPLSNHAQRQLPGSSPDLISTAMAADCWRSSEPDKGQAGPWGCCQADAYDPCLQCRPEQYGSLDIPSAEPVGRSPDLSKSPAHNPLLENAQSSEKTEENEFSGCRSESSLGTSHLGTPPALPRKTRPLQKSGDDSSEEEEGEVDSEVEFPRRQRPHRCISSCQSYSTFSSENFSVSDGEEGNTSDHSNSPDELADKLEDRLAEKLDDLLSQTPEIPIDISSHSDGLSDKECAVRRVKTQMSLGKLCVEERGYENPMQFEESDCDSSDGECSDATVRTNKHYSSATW
Experiment [3] deals with T1, Mitogen-activated protein kinase kinase kinase kinase 2 (Homo sapiens) (UniProt Q12851).
T1 sequence (whole entry): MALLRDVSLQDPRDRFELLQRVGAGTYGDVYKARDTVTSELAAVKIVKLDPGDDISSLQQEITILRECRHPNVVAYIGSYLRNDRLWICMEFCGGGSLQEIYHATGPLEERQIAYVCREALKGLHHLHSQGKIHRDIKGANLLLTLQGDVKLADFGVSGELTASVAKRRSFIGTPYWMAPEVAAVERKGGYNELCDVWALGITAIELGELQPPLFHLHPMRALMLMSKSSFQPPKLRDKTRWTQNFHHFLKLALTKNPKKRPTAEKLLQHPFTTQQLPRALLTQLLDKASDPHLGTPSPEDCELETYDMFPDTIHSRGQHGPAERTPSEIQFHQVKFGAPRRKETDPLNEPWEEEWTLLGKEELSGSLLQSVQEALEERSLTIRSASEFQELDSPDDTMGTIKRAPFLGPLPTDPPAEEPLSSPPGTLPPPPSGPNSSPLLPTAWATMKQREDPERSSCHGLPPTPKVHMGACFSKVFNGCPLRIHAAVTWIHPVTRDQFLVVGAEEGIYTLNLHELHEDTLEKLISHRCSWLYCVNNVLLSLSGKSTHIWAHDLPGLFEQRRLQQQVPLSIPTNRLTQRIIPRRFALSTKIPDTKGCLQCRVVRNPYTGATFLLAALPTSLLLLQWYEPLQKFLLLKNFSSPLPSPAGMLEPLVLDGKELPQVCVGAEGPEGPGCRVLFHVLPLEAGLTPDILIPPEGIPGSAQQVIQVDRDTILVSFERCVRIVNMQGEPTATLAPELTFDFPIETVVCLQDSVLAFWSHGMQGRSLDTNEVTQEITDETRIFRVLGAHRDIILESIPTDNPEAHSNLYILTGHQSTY
In words: Inhibition of MAP4K2 (unknown origin) at 1 uM by Ambit Kinomescan binding assay relative to control; values are per cent of control.

Experiment [4] has as its target BMP-2-inducible protein kinase (Homo sapiens) (UniProt Q9NSY1). Kind of experiment: Inhibition of BIKE (unknown origin) at 1 uM by Ambit Kinomescan binding assay relative to control; values are per cent of control.
Experiment [5] has as its target LIM domain kinase 2 (Homo sapiens) (UniProt P53671). In words: Inhibition of LIMK2 (unknown origin) at 1 uM by Ambit Kinomescan binding assay relative to control; values are per cent of control.
In experiment [6] the target is Calcium/calmodulin-dependent protein kinase kinase 2 (Homo sapiens) (UniProt Q96RR4). Kind of experiment: Inhibition of CaMKK2 Lys1 labeling site in human A-375 cells at 0.5 uM by KiNativ Profiling analysis relative to control. The format is cell-based.
Chain of Calcium/calmodulin-dependent protein kinase kinase 2 (Homo sapiens) (Q96RR4 2-588 limits assumed): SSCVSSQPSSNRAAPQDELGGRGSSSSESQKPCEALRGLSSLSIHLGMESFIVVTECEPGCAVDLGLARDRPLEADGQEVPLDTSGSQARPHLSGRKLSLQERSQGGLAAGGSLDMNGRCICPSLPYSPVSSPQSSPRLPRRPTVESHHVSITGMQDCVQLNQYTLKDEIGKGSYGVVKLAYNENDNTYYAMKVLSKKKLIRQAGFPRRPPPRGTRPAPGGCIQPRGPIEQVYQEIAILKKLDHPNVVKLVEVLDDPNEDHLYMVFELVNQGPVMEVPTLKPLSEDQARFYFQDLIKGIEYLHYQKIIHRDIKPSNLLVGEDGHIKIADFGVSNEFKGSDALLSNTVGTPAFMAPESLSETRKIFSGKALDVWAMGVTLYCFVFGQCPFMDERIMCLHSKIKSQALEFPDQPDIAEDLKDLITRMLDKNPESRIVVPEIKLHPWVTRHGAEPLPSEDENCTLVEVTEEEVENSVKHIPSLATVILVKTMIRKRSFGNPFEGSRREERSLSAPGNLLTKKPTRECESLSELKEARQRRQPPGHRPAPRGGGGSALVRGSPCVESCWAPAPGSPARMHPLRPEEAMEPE
For experiment [7], the target named is Cyclin-dependent kinase 5 (Homo sapiens) (UniProt Q00535). Kind of experiment: Inhibition of CDK5 K2 labeling site harbouring DLKPQNLLINR in human Huh-7 cells at 1 uM by KiNativ Profiling analysis relative to control. Format: cell-based.
Chain of Cyclin-dependent kinase 5 (Homo sapiens) (Q00535 whole entry, looked up, the tested form may be a part): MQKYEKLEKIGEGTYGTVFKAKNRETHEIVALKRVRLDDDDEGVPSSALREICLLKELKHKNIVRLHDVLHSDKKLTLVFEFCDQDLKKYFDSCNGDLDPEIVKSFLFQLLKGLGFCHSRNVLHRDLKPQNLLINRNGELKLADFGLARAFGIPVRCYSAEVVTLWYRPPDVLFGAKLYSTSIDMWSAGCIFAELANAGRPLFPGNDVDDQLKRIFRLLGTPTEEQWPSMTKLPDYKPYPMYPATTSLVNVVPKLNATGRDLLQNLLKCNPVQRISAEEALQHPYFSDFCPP
In experiment [8] the target is Non-receptor tyrosine-protein kinase TYK2 (Homo sapiens) (UniProt P29597). In words: Inhibition of TYK2 domain2 ACT labeling site in human A-375 cells at 5 uM by KiNativ Profiling analysis relative to control. The format is cell-based.
The nature of experiment [9]: Inhibition of KHS1 K2 labeling site in human Huh-7 cells at 10 uM by KiNativ Profiling analysis relative to control. As to conditions: condition cancer.
Experiment [10] has as its target Glycogen synthase kinase-3 beta (Homo sapiens) (UniProt P49841). Kind of experiment: Inhibition of GSK3B Lys2 labeling site in human Huh-7 cell lysate at 1 uM by KiNativ Profiling analysis relative to control. Format: subcellular.
The target in experiment [11] is T2, Serine/threonine-protein kinase D3 (Homo sapiens) (UniProt O94806).
T2 sequence (whole entry): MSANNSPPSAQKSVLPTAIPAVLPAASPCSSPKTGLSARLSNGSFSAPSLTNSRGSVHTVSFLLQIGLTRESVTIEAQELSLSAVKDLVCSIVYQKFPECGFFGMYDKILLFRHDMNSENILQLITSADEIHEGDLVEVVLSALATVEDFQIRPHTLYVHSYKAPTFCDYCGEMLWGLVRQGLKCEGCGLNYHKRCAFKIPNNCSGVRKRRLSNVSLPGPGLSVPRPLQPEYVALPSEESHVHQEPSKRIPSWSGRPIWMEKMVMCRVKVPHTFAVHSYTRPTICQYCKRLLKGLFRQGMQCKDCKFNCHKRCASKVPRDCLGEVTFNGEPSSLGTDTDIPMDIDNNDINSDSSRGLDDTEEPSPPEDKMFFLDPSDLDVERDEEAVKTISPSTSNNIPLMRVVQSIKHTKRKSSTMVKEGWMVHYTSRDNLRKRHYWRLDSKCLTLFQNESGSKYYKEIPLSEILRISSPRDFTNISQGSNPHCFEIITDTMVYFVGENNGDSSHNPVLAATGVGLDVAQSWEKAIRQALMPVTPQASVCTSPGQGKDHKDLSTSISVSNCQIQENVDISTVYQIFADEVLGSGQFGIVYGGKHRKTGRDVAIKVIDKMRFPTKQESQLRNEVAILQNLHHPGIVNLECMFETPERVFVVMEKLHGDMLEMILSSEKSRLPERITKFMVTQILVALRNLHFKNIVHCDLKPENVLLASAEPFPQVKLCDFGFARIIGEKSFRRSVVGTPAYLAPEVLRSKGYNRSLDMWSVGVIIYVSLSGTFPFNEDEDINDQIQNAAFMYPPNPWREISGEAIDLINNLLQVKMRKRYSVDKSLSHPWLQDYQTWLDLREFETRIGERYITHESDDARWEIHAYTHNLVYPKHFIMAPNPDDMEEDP
In words: Inhibition of PKD3 Lys2 labeling site in human Huh-7 cell lysate at 1 uM by KiNativ Profiling analysis relative to control. Format: subcellular.

Chain of BMP-2-inducible protein kinase (Homo sapiens) (Q9NSY1 whole entry, looked up, the tested form may be a part): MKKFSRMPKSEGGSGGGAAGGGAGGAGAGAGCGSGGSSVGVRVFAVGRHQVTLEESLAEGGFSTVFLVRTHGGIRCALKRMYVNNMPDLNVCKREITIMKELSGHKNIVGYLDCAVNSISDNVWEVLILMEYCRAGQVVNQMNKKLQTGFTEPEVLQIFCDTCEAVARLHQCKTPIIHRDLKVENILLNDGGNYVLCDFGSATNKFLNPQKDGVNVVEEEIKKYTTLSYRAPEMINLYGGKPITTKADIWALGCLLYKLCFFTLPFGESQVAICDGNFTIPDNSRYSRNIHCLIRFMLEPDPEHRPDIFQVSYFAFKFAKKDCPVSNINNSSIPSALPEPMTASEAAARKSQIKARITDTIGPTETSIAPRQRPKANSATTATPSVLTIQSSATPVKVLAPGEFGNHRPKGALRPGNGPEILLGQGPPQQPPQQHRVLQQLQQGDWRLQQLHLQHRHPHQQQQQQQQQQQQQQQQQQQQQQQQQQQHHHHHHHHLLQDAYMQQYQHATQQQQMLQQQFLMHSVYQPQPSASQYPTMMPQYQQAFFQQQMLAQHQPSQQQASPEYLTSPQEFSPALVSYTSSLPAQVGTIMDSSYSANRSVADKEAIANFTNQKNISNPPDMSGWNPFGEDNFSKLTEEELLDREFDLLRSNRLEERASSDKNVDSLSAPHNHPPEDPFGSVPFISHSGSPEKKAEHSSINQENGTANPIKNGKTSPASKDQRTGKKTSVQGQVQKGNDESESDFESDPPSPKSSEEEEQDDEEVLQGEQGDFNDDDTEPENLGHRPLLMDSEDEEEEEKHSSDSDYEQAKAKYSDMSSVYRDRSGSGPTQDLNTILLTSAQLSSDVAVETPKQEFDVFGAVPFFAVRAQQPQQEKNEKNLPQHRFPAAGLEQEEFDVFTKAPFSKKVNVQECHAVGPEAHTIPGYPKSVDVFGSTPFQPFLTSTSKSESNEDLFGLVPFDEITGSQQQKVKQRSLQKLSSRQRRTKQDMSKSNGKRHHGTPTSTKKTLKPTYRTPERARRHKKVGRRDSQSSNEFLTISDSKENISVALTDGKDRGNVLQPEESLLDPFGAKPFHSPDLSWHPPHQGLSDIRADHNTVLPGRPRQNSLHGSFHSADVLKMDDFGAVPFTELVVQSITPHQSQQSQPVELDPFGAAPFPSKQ
Chain of Glycogen synthase kinase-3 beta (Homo sapiens) (P49841 whole entry, looked up): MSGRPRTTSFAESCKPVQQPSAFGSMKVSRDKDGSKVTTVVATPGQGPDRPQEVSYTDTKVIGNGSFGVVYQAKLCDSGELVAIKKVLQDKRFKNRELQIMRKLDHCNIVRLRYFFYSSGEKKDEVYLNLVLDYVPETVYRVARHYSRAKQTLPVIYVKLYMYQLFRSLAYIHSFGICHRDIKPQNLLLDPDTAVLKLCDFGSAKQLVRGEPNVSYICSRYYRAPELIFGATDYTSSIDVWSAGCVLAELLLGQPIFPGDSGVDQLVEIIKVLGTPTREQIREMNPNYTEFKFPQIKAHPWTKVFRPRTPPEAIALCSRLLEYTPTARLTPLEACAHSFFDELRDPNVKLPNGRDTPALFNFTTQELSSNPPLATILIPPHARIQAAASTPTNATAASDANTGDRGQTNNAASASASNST
Chain of Cyclin-dependent kinase 18 (Homo sapiens) (Q07002 whole entry): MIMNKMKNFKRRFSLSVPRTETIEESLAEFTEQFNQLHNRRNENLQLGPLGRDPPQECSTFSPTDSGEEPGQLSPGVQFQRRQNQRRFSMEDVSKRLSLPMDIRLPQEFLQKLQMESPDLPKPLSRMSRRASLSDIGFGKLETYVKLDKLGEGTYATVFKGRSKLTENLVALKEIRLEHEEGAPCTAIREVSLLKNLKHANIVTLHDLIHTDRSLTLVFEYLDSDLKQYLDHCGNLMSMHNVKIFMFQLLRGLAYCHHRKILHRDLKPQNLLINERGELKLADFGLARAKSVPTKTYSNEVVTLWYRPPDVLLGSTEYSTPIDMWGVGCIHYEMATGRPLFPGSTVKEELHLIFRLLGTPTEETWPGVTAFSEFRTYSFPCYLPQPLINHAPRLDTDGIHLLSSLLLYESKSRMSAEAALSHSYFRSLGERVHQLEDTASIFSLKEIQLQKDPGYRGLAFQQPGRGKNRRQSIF
Chain of LIM domain kinase 2 (Homo sapiens) (P53671 whole entry, looked up, the tested form may be a part): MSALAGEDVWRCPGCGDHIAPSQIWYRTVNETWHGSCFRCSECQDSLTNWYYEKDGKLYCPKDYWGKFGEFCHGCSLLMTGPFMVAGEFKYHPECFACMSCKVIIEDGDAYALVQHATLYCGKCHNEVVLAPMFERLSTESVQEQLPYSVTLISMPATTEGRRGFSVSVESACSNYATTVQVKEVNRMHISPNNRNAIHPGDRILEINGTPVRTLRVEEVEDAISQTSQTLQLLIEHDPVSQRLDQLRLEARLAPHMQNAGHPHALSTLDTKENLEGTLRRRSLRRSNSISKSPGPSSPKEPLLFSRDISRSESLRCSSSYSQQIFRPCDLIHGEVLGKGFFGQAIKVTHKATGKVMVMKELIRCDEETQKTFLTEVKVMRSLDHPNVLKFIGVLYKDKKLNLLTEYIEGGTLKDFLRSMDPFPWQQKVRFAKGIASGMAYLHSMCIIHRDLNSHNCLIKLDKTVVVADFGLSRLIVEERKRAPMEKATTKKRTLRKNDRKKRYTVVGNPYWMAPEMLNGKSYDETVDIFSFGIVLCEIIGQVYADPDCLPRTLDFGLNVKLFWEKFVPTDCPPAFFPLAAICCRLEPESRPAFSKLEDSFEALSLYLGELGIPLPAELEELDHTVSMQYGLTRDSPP

What is called inhibition is the change of the read-out against control, counted positive when it falls. As for `CCN1CCN(Cc2ccc(NC(=O)c3ccc(C)c(/C=C/c4cnc5[nH]ccc5c4OC)c3)cc2C(F)(F)F)CC1`, the inhibition in experiment [1] amounted to 2.7%; in experiment [2], 82%. In experiment [3], this molecule yielded a percent of control of 3.2%. In addition, the residual activity in experiment [4] came to 25%; in experiment [5], 26%.
For the molecule `CCN1CCN(Cc2ccc(NC(=O)c3ccc(C)c(Oc4ccnc5[nH]ccc45)c3)cc2C(F)(F)F)CC1`, the figures for the inhibition in experiment [6], in experiment [7] and in experiment [8] were 6.3%, -7.6% and 50.1%, respectively. Also, the inhibition at 10 µM in experiment [9] is 0.3%.
For `CNc1cc(Oc2cc(C(=O)Nc3cc(N4CCN(C)CC4)cc(C(F)(F)F)c3)ccc2C)ncn1`, the values for the inhibition in experiment [10] and in [11] were 6% and 12.4%, respectively.
